Measurements from patent US20020187514A1 (priority 1999, published 2002).
Counter-ions that a name gives are not always drawn.

Legend:
Imidazoline, I2, central = test: Imidazoline, I2, central; [3H]2-BFI; assay type: binding; conditions: reference compound, QA/QC; read-out: Ref Kj
Melatonin = test: Melatonin; [125I]-2-Iodomelatonin; assay type: binding; conditions: reference compound, QA/QC; read-out: Ref Kj
Imidazoline, I1 = test: Imidazoline, I1; [125I]-Clonidine; assay type: binding; conditions: reference compound, QA/QC; read-out: Ref Kj
Histamine, H3 = test: Histamine, H3; [3H]N-a-MeHistamine; assay type: binding; conditions: reference compound, QA/QC; read-out: Ref Kj
Glucocorticoid = Glucocorticoid (UniProt P06536); conditions: read-out: Ref Kj
Histamine, H1 = biological target: T1, Histamine, H1 (Bos taurus, UniProt P30546); test: Histamine, H1; [3H]Pyrilamine; assay type: binding
T1 construct: no other source notation after assay name denotes animal cell or animal tissue source; from tissue; host or cells: animal cell or animal tissue, not specified
T1 sequence (P30546 whole entry): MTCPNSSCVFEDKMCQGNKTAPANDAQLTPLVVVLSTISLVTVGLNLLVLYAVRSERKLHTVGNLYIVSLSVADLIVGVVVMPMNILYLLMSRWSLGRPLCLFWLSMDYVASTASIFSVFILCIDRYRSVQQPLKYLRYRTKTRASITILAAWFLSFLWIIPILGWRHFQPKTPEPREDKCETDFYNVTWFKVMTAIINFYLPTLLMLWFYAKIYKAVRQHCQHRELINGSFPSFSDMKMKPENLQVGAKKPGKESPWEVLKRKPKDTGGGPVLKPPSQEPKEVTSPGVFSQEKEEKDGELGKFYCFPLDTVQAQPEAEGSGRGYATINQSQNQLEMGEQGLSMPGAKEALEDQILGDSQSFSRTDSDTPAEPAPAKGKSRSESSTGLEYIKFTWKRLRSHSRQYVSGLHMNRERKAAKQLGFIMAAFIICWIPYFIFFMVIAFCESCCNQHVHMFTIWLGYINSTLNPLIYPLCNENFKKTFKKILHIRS

Chain of Glucocorticoid (P06536 whole entry): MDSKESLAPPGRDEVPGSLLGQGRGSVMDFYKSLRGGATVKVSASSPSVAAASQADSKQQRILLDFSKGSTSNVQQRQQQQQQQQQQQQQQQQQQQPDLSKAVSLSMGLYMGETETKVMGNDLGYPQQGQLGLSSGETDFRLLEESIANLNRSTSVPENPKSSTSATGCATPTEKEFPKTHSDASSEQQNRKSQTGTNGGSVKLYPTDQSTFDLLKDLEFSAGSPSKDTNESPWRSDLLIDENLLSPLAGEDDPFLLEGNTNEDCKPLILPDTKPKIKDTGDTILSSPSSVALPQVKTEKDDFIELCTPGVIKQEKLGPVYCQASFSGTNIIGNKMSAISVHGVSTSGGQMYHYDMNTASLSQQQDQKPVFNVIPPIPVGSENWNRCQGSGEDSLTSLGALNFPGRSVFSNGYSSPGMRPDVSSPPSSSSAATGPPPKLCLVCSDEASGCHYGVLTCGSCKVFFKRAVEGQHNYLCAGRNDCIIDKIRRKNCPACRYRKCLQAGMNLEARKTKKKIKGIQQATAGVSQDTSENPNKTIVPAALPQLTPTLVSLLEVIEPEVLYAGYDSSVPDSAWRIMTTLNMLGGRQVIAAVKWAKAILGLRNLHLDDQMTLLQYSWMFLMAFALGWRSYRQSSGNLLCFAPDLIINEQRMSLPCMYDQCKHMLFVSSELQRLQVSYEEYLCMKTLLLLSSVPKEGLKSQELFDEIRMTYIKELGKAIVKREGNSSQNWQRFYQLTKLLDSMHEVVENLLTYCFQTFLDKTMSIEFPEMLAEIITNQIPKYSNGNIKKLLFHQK

Work on `c1ccc2oc(C3=NCCN3)cc2c1` [2-BFI] yielded a Ki (Imidazoline, I2, central) of 0.054 nM.
With `Clc1cc(I)cc(Cl)c1NC1=NCCN1` [Iodoclonidine] the Ki (Imidazoline, I1) was 7.89 nM.
For `CNCCc1cnc[nH]1` [N-a-Methylhistamine (NAMH), N-a-Methylhistamine], the Ki (Histamine, H3) was 1.31 nM.
Work on `C[C@]12C=CC(=O)C=C1CC[C@H]1[C@@H]3C[C@@H](O)[C@](O)(C(=O)CO)[C@@]3(C)C[C@H](O)[C@@]12F` [Triamcinolone] yielded a Ki (Glucocorticoid) of 1.74 nM.
`Cc1ccc(/C(=C\CN2CCCC2)c2ccccn2)cc1` [Triprolidine HCl] gave a Ki (Histamine, H1) of 3.6 nM.
